Experimental data: ChEMBL document CHEMBL1157938, “Cytotoxicity and inhibition of DNA topoisomerase I of polyhydroxylated triterpenoids and triterpenoid glycosides” (Bioorg Med Chem Lett, 2010)
The source made the active and inactive calls. The rule behind the calls is not given here.

Assays:
DNA topoisomerase 1 [1] = target: T1, DNA topoisomerase 1 (Homo sapiens, UniProt P11387); assay: Inhibition of human DNA topoisomerase 1-mediated relaxation of supercoiled DNA by gel electrophoresis
T1 sequence (P11387 whole entry): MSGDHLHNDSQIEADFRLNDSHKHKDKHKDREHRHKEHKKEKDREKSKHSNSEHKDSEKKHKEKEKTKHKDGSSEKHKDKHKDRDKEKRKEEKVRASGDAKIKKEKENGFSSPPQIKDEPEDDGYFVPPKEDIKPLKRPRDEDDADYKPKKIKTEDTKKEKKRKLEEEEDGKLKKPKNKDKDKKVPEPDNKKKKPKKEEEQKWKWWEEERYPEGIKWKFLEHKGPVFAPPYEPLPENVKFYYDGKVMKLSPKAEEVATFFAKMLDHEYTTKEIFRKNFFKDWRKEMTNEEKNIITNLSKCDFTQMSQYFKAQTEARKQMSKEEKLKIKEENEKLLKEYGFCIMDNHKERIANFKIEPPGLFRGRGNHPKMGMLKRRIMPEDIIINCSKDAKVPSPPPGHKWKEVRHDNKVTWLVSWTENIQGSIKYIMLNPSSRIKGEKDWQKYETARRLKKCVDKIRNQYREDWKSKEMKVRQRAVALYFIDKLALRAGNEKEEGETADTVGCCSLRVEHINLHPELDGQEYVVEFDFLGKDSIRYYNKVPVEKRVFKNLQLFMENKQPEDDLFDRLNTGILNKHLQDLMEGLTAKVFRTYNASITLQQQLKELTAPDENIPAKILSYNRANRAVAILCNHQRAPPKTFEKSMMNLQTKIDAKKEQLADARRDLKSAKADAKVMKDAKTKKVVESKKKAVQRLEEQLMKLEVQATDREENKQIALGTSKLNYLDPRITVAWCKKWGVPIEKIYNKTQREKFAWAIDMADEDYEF

[2] = target: T2, DNA topoisomerase 1 (Homo sapiens) (UniProt P11387); assay: Inhibition of human DNA topoisomerase 1 assessed as stabilize DNA-enzyme covalent complex
T2 sequence (whole entry): T1 sequence (P11387 whole entry)

PC-3 [3] = assay: Cytotoxicity against human PC3 cells after 48 hrs by WST8 assay; type: functional; details: PC-3, 48 h
PANC-1 [4] = assay: Cytotoxicity against human PANC1 cells after 48 hrs by WST8 assay; type: functional; details: PANC-1, 48 h
A549 [5] = assay: Cytotoxicity against human A549 cells after 48 hrs by WST8 assay; type: functional; details: A549, 48 h
[6] = target: T2, DNA topoisomerase 1 (Homo sapiens); assay: Inhibition of human DNA topoisomerase 1-mediated relaxation of supercoiled DNA at 63 to 125 uM
DNA topoisomerase 1 [7] = target: T1, DNA topoisomerase 1; assay: Inhibition of human DNA topoisomerase 1 at free enzyme state
[8] = target: DNA topoisomerase 2-alpha (Homo sapiens, UniProt P11388); assay: Inhibition of human DNA topoisomerase 2-mediated relaxation of supercoiled DNA by gel electrophoresis
Sequence of DNA topoisomerase 2-alpha (P11388 whole entry): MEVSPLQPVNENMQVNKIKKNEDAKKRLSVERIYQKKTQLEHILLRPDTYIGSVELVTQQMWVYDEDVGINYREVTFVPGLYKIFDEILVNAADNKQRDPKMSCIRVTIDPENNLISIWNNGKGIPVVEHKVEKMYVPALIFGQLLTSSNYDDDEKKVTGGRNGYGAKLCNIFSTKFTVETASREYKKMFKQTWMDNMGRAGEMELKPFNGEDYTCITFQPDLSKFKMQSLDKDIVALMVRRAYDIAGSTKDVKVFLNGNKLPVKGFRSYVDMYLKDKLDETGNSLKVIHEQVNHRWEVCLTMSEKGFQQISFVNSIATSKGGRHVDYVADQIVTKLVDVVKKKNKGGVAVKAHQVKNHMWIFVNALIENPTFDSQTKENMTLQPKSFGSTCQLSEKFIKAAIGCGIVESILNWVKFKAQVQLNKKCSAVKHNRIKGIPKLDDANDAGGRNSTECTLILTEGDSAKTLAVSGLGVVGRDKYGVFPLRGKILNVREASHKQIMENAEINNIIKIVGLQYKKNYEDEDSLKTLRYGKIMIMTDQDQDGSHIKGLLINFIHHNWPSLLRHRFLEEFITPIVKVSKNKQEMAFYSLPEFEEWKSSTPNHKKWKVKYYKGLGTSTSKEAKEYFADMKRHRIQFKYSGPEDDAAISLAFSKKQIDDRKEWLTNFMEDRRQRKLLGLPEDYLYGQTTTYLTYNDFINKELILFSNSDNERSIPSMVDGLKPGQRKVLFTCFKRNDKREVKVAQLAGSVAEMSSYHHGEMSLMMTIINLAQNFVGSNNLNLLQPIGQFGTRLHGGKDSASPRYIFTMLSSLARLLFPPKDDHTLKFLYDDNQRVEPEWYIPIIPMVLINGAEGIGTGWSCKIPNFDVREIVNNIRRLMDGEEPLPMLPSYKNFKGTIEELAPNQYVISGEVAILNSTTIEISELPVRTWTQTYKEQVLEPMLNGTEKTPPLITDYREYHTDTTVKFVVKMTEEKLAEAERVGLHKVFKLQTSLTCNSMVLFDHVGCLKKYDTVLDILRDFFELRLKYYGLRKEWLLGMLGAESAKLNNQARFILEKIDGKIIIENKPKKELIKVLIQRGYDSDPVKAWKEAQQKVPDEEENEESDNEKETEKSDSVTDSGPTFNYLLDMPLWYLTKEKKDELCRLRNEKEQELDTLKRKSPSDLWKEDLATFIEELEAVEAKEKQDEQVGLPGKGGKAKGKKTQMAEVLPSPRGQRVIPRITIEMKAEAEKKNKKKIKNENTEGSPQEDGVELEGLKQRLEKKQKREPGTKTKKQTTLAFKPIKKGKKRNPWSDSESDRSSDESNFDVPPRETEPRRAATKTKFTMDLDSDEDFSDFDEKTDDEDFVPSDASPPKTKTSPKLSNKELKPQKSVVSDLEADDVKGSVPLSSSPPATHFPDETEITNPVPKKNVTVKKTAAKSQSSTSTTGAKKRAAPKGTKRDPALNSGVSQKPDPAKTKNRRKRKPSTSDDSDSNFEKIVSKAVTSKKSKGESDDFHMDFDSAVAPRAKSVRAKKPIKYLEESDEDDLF

[9] = target: T2, DNA topoisomerase 1 (Homo sapiens); assay: Inhibition of human DNA topoisomerase 1-mediated relaxation of supercoiled DNA at 63 uM
[10] = target: T2, DNA topoisomerase 1 (Homo sapiens); assay: Inhibition of human DNA topoisomerase 1 assessed as prevention of DNA-enzyme complex formation
HL-60 [11] = assay: Cytotoxicity against human HL60 cells after 48 hrs by WST8 assay; type: functional; details: HL-60, 48 h
[12] = Cytotoxicity against human MRC5 cells after 48 hrs by WST8 assay; type: cell-based
[13] = target: T2, DNA topoisomerase 1 (Homo sapiens); assay: Inhibition of human DNA topoisomerase 1-mediated relaxation of supercoiled DNA at 450 uM
A549 [14] = assay: Cytotoxicity against human A549 cells at 25 uM after 48 hrs by WST8 assay; type: functional, cell-based
MRC5 = assay: Cytotoxicity against human MRC5 cells at 25 uM after 48 hrs by WST8 assay; type: cell-based; details: mrc5, 48 h
PC-3 [15] = assay: Cytotoxicity against human PC3 cells at 25 uM after 48 hrs by WST8 assay; type: functional, cell-based
PANC-1 [16] = assay: Cytotoxicity against human PANC1 cells at 25 uM after 48 hrs by WST8 assay; type: functional, cell-based
[17] = target: T2, DNA topoisomerase 1 (Homo sapiens); assay: Inhibition of human DNA topoisomerase 1-mediated relaxation of supercoiled DNA at 312 uM
HL-60 [18] = assay: Cytotoxicity against human HL60 cells at 25 uM after 48 hrs by WST8 assay; type: functional, cell-based
[19] = target: T2, DNA topoisomerase 1 (Homo sapiens); assay: Inhibition of human DNA topoisomerase 1 assessed as intercalate into DNA at 312 uM
[20] = target: T2, DNA topoisomerase 1 (Homo sapiens); assay: Inhibition of human DNA topoisomerase 1-mediated relaxation of supercoiled DNA at >125 uM

| SMILES | IC50 (DNA topoisomerase 1 [1]) [µM] | inhibition [2] | GI50 (PC-3 [3]) [µM] | GI50 (PANC-1 [4]) [µM] | GI50 (A549 [5]) [µM] | IC50 (DNA topoisomerase 1 [7]) [µM] | IC50 [8] [µM] | inhibition [10] | GI50 (HL-60 [11]) [µM] | GI50 at 48 h [12] [µM] | inhibition [13] | growth inhibition (GI) (MRC5) | growth inhibition (GI) (PANC-1 [16]) | inhibition [17] | Activity [19] | other results |
| --- | --- | --- | --- | --- | --- | --- | --- | --- | --- | --- | --- | --- | --- | --- | --- | --- |
| C/C=C(/C)C(=O)O[C@H]1[C@H](OC(=O)/C(C)=C\C)[C@]2(CO)[C@H](O)C[C@]3(C)C(=CC[C@@H]4[C@@]5(C)CC[C@H](O[C@@H]6O[C@H](C(=O)O)[C@@H](O)[C@H](O[C@@H]7O[C@@H](CO)[C@H](O)[C@H]7O)[C@H]6O[C@@H]6O[C@H](CO)[C@H](O)[C@H](O)[C@H]6O)C(C)(C)[C@@H]5CC[C@]43C)[C@@H]2CC1(C)C | 27.1 | inactive | 3.26 | 11.9 | 6.03 | 23.8 | > 250 | Active | 1.97 | 7.43 | – | – | – | – | – | inhibition [6]: Active; inhibition [9]: Active |
| C/C=C(/C)C(=O)O[C@H]1[C@H](OC(=O)/C(C)=C\C)[C@]2(CO)[C@H](O)C[C@]3(C)C(=CC[C@@H]4[C@@]5(C)CC[C@H](O)C(C)(C)[C@@H]5CC[C@]43C)[C@@H]2CC1(C)C | > 250 | – | 6.84 | 11.2 | 5.48 | – | > 250 | – | 5.46 | 7.18 | inactive | – | – | – | – | – |
| C/C=C(/C)C(=O)O[C@H]1[C@H](O)[C@]2(CO)[C@H](O)[C@H](O)[C@]3(C)C(=CC[C@@H]4[C@@]5(C)CC[C@H](O[C@@H]6O[C@H](C(=O)O)[C@@H](O)[C@H](O[C@@H]7O[C@@H](CO)[C@H](O)[C@H]7O)[C@H]6O[C@@H]6O[C@H](CO)[C@H](O)[C@H](O)[C@H]6O)C(C)(C)[C@@H]5CC[C@]43C)[C@@H]2CC1(C)C [AESCULIOSIDE IIA] | 109 | – | – | – | – | – | > 250 | – | – | – | Active | Not Active | inactive | inactive | – | growth inhibition (GI) (A549 [14]): inactive; growth inhibition (GI) (PC-3 [15]): inactive; growth inhibition (GI) (HL-60 [18]): inactive |
| C/C=C(/C)C(=O)O[C@H]1[C@H](O)[C@]2(CO)[C@H](O)C[C@]3(C)C(=CC[C@@H]4[C@@]5(C)CC[C@H](O[C@@H]6O[C@H](C(=O)O)[C@@H](O)[C@H](O[C@@H]7O[C@@H](CO)[C@H](O)[C@H]7O)[C@H]6O[C@@H]6O[C@H](CO)[C@H](O)[C@H](O)[C@H]6O)C(C)(C)[C@@H]5CC[C@]43C)[C@@H]2CC1(C)C [AESCULIOSIDE IIC] | 111 | inactive | 16.3 | – | 8.67 | 23.8 | > 250 | Active | 5.75 | 11.2 | Active | – | inactive | inactive | Active | – |
| C/C=C(\C)C(=O)O[C@H]1[C@H](OC(C)=O)[C@]2(CO)[C@H](O)[C@H](O)[C@]3(C)C(=CC[C@@H]4[C@@]5(C)CC[C@H](O[C@@H]6O[C@H](C(=O)O)[C@@H](O)[C@H](O[C@@H]7O[C@@H](CO)[C@H](O)[C@H]7O)[C@H]6O[C@@H]6O[C@H](CO)[C@@H](O)[C@H](O)[C@H]6O)[C@](C)(CO)[C@@H]5CC[C@]43C)[C@@H]2CC1(C)C [AESCULIOSIDE IIE] | – | – | – | – | – | – | – | – | – | – | – | Not Active | inactive | – | – | growth inhibition (GI) (A549 [14]): inactive; growth inhibition (GI) (PC-3 [15]): inactive; inhibition [20]: Active; growth inhibition (GI) (HL-60 [18]): inactive |
| C/C=C(/C)C(=O)O[C@H]1[C@H](O)[C@]2(COC(C)=O)[C@H](O)C[C@]3(C)C(=CC[C@@H]4[C@@]5(C)CC[C@H](O[C@@H]6O[C@H](C(=O)O)[C@@H](O)[C@H](O[C@@H]7O[C@@H](CO)[C@H](O)[C@H]7O)[C@H]6O[C@@H]6O[C@H](CO)[C@@H](O)[C@H](O)[C@H]6O)[C@](C)(CO)[C@@H]5CC[C@]43C)[C@@H]2CC1(C)C [AESCULIOSIDE IIIA] | 119 | inactive | 10.1 | 16.7 | 9.48 | 23.8 | > 250 | Active | 7.2 | 8.65 | Active | – | – | inactive | Active | – |
| C/C=C(/C)C(=O)O[C@H]1[C@H](OC(=O)C(C)C)[C@]2(CO)[C@H](O)[C@H](O)[C@]3(C)C(=CC[C@@H]4[C@@]5(C)CC[C@H](O[C@@H]6O[C@H](C(=O)O)[C@@H](O)[C@H](O[C@@H]7O[C@@H](CO)[C@H](O)[C@H]7O)[C@H]6O[C@@H]6O[C@H](CO)[C@@H](O)[C@H](O)[C@H]6O)[C@](C)(CO)[C@@H]5CC[C@]43C)[C@@H]2CC1(C)C [AESCULIOSIDE IIIB] | 160 | inactive | 9.93 | – | 11.2 | 23.8 | > 250 | Active | 10.9 | – | Active | Not Active | inactive | inactive | Active | – |
| C/C=C(\C)C(=O)O[C@H]1[C@H](OC(=O)C(C)CC)[C@]2(CO)[C@H](O)[C@H](O)[C@]3(C)C(=CC[C@@H]4[C@@]5(C)CC[C@H](O[C@@H]6O[C@H](C(=O)O)[C@@H](O)[C@H](O[C@@H]7O[C@@H](CO)[C@H](O)[C@H]7O)[C@H]6O[C@@H]6O[C@H](CO)[C@H](O)[C@H](O)[C@H]6O)C(C)(C)[C@@H]5CC[C@]43C)[C@@H]2CC1(C)C (some centres undefined) [AESCULIOSIDE IIIC] | 132 | – | 12.5 | 18.5 | 17.6 | – | > 250 | – | 13.6 | – | Active | Not Active | – | – | Active | – |
| C/C=C(/C)C(=O)O[C@H]1[C@H](OC(=O)/C(C)=C/C)C(C)(C)C[C@H]2C3=CC[C@@H]4[C@@]5(C)CC[C@H](O[C@@H]6O[C@H](C(=O)O)[C@@H](O)[C@H](O[C@@H]7O[C@@H](CO)[C@H](O)[C@H]7O)[C@H]6O[C@@H]6O[C@H](CO)[C@@H](O)[C@H](O)[C@H]6O)[C@](C)(CO)[C@@H]5CC[C@@]4(C)[C@]3(C)[C@@H](O)[C@@H](O)[C@]21CO [AESCULIOSIDE IIIE] | 45.1 | – | 12.8 | 21.4 | 21.3 | – | > 250 | – | 14 | 21.5 | – | – | – | – | Active | inhibition [6]: Active |
| C/C=C(\C)C(=O)O[C@H]1[C@H](OC(=O)/C(C)=C/C)[C@]2(CO)[C@H](O)[C@H](O)[C@]3(C)C(=CC[C@@H]4[C@@]5(C)CC[C@H](O[C@@H]6O[C@H](C(=O)O)[C@@H](O)[C@H](O[C@@H]7O[C@@H](CO)[C@H](O)[C@H]7O)[C@H]6O[C@@H]6O[C@H](CO)[C@@H](O)[C@H](O)[C@H]6O)C(C)(C)[C@@H]5CC[C@]43C)[C@@H]2CC1(C)C [AESCULIOSIDE IIIF] | 53.7 | – | 11.7 | 23.5 | > 25 | – | > 250 | – | 14.2 | > 25 | – | – | – | – | – | inhibition [6]: Active; inhibition [20]: Active |
| C/C=C(/C)C(=O)O[C@H]1[C@H](OC(C)=O)[C@]2(CO)[C@H](O)C[C@]3(C)C(=CC[C@@H]4[C@@]5(C)CC[C@H](O[C@@H]6O[C@H](C(=O)O)[C@@H](O)[C@H](O[C@@H]7O[C@@H](CO)[C@H](O)[C@H]7O)[C@H]6O[C@@H]6O[C@H](CO)[C@H](O)[C@H](O)[C@H]6O)C(C)(C)[C@@H]5CC[C@]43C)[C@@H]2CC1(C)C [AESCULIOSIDE IIK] | > 250 | – | 8.35 | 21.5 | 15.1 | – | > 250 | – | 8.75 | 9.89 | – | – | – | – | – | inhibition [20]: Active |
